In patent US8476196B2, “Control of harmful algal blooms by induction of programmed cell death” (University of South Florida, priority 2009, dated 2013):

Assays:
[1] = tested on: Karenia brevis (Piney Island A2); experiment: K. brevis culture treatment, intact cell counts (light microscope / FlowCam); assay type: cell-based; conditions: for cell appearance in FlowCam images: 100 μM final concentration, treated flasks
Description: The present inventors have determined that NO may be used to trigger cell death in Karenia brevis and potentially other harmful algae. The response to low concentrations occurs within 24 hours and varies with concentration. To describe the dose response, cultures of K. brevis (Piney Island A2) were exposed to varied concentrations of the nitric oxide donor diethylamine NONOate sodium salt hydrate or DEA NONOate (IUPAC name: sodium N-(diethylamino)-N-oxidonitrous amide).
Work described by Chung et al. (2008) employed 500 μM DEA NO to elicit ScDSP-1 expression in Skeletonema costatum. The present inventors sought to determine the low end of the dose response, if any effect, in K. brevis. Trials therefore tested the effect of DEA NONOate concentrations ranging from 100 μM to 0.1 μM. For each trial, K. brevis cultures were grown in L1 media. Cultures were diluted 1:1 from a stock flask into a total volume of 125 mL in 250-mL acid washed and autoclaved flasks. Cultures were allowed to recover for 2-4 days prior to treatment. Immediately prior to treatment, DEA NONOate (Sigma-Aldrich, St. Louis, Mo.) was dissolved from its powdered form in sterile nuclease-free water. The solution was made to a concentration of 1 mg mL^−1. Two trials were performed to delineate responses to different concentrations of NO. In each case, the appropriate volume of DEA NONO solution was added and the cultured swirled by hand gently to mix the solution. Control flasks were also used for each trial; these received only an aliquot of the water used for dissolving DEA NONOate, equal to the largest volume administered to treatment flasks for that trial. At the concentration of 1 mg mL^−1, volumes of DEA NONO solution added ranged from 1.9 mL to 1.9 μL for 100 μM to 0.1 μM final concentrations in culture flasks. Three replicate flasks were used for each concentration and negative controls. Prior to treatment and at each sampling point after treatment, 5 mL of culture were removed for counting. A 1 mL aliquot was imaged/counted on the FlowCam flow-through microscope and the remainder was stained with Lugol's iodine solution and counted by light microscope on a gridded Sedgewick counting slide (1 mm^2 grid size). For slide counting, 50-70 grid squares were counted for each sample. Although counts were obtained for most samples by FlowCam and light microscopy, the light microscope counts were used for recording quantitative data while FlowCam images were used as a record of cell appearances.

[2] = tested on: Karenia brevis (Piney Island A2); experiment: as above; assay type: cell-based; conditions: 20 μM final concentration, higher-density cultures, T=2 days, two replicates
caspase 3 = experiment: Colorimetric caspase-like enzyme activity in K. brevis, caspase 3; assay type: cell-based, Karenia brevis
Description: (§1) Since caspase activity is a hallmark of PCD, experiments were conducted to examine caspase-like enzyme activity in K. brevis. The activity of enzymes that are similar to caspase-3 and caspase-8 were examined. The assays use a commercially available kit (MBL International, Woburn, Mass.) to measure the protease activity specific to certain amino acid sequence motifs. A short time series was performed to measure upregulation of caspase-like activity due to exposure to NO. NO was produced from the compound DEA-NONOate (use of this is previously described herein). […] Based on these findings, there is at least a 2-3 fold up-regulation of caspase-like activity due to NO exposure at 50-100 micromolar. This provides evidence that K. brevis death due to NO exposure is mediated by PCD pathways in the cells. This activity appears rapidly (within 20 minutes), and can decline rapidly (by 120 minutes). The decline is presumably due to actual death of the cells, since at the 120 minute mark, many cells were already in the process of lysis when viewed microscopically.

caspase 8 = experiment: Colorimetric caspase-like enzyme activity in K. brevis, caspase 8; assay type: cell-based, Karenia brevis
Description: as §1

caspase-like activity [3] = experiment: Caspase-like activity in K. brevis, summary statements; assay type: cell-based, Karenia brevis
Description: as §1

ScDSP-1 = conditions: Skeletonema costatum; cited from earlier work
caspase-like activity [4] = conditions: pretreatment before supplementation of NO donors; cited from earlier work
[5] = Experiment 1, 100 uM NO, 60 min
[6] = Experiment 1, 100 uM NO, 120 min

Compound: CCN(CC)N([O-])N=O.[Na+] [DEA NONOate, sodium N-(diethylamino)-N-oxidonitrous amide, reference compound]
- cell appearance in FlowCam images [1]: all particles imaged by the FlowCam resembled the disrupted cells
- cell appearance in FlowCam images ([1]; listed as DEA NONO): disrupted
- intact cells present ([1]; 100 μM, 1 day post-treatment): no intact cells were observed
- intact cells present ([1]; 100 μM, 2 days post-treatment): no intact cells were observed
- decrease of average intact cell count from pre-treatment counts [2]: 98.6%

Compound: CC(C)C[C@H](NC(=O)[C@H]1O[C@@H]1C(=O)O)C(=O)NCCCCN=C(N)N [E-64, L-transepoxysuccinyl-leucylamido-[4-guanidino]butane, reference compound]
- protection against NO-induced mortality ([1]; E-64 10 μM added with 20 μM NO): no protection

Compound: [N]=O [NO, nitric oxide]
- cell counts of surviving cells (recovery) ([1]; 10 μM, T=5 days): increased to greater than pre-treatment numbers
- intact cells present ([1]; 100 μM, 1 day post-treatment): no intact cells were present
- cell death ([1]; 100 μM, 24 hours): complete cell death
- intact cells present ([1]; 100 μM, 2 days post-treatment): no intact cells were present
- mortality at 10 µM ([1]; Karenia brevis, 10 μM, second trial (FIG. 3), read-out: mortality / reduction of intact cells from pre-treatment numbers): ~50%
- mortality at 20 µM ([1]; Karenia brevis, 20 μM NO (FIG. 4)): ~50%
- time in which response to low concentrations occurs ([1]; low concentrations): ≤ 24 h
- effect on intact cell numbers ([1]; lower concentrations, 1 μM or less (0.1 μM, 1 μM)): no effect
- Absorbance of colorimetric caspase cleavage product, caspase 3 (caspase 3; [5]): 0.014
- Upregulation vs. control (fold), caspase 3 (caspase 3; [5]): 14 fold
- Absorbance of colorimetric caspase cleavage product, caspase 3 (caspase 3; [6]): 0.001
- Upregulation vs. control (fold), caspase 3 (caspase 3; [6]): 1 fold
- Absorbance of colorimetric caspase cleavage product, caspase 3 (caspase 3; Experiment 2, 50 uM NO, 20 min): 0.016
- Upregulation vs. control (fold), caspase 3 (caspase 3; Experiment 2, 50 uM NO, 20 min): 2.7 fold
- Absorbance of colorimetric caspase cleavage product, caspase 3 (caspase 3; Experiment 2, 50 uM NO, 40 min): 0.016
- Upregulation vs. control (fold), caspase 3 (caspase 3; Experiment 2, 50 uM NO, 40 min): 2.7 fold
- Absorbance of colorimetric caspase cleavage product, caspase 3 (caspase 3; Experiment 2, 50 uM NO, 60 min): 0.013
- Upregulation vs. control (fold), caspase 3 (caspase 3; Experiment 2, 50 uM NO, 60 min): 2.2 fold
- Absorbance of colorimetric caspase cleavage product, caspase 8 (caspase 8; [5]): 0.017
- Upregulation vs. control (fold), caspase 8 (caspase 8; [5]): 2.4 fold
- Absorbance of colorimetric caspase cleavage product, caspase 8 (caspase 8; [6]): 0.006
- Upregulation vs. control (fold), caspase 8 (caspase 8; [6]): 0.9 fold
- Absorbance of colorimetric caspase cleavage product, caspase 8 (caspase 8; Experiment 2, 50 uM NO, 20 min): 0.021
- Upregulation vs. control (fold), caspase 8 (caspase 8; Experiment 2, 50 uM NO, 20 min): 2.1 fold
- Absorbance of colorimetric caspase cleavage product, caspase 8 (caspase 8; Experiment 2, 50 uM NO, 40 min): 0.019
- Upregulation vs. control (fold), caspase 8 (caspase 8; Experiment 2, 50 uM NO, 40 min): 1.9 fold
- Absorbance of colorimetric caspase cleavage product, caspase 8 (caspase 8; Experiment 2, 50 uM NO, 60 min): 0.018
- Upregulation vs. control (fold), caspase 8 (caspase 8; Experiment 2, 50 uM NO, 60 min): 1.8 fold
- time by which caspase-like activity can decline (caspase-like activity [3]; NO exposure): ≤ 120 min
- time in which caspase-like activity appears (caspase-like activity [3]; NO exposure): ≤ 20 min
- up-regulation of caspase-like activity (caspase-like activity [3]; NO exposure at 50-100 micromolar): 2-3 fold
- expression of a death specific protein (ScDSP-1): induce expression of a death specific protein

Compound: Ac-DEVD-CHO
- effect on increase in caspase-like activity (caspase-like activity [4]): prevented increase in caspase-like activity
